# Data published in publication PMC6658782, “The Novel Arylamidine T-2307 Selectively Disrupts Yeast Mitochondrial Function by Inhibiting Respiratory Chain Complexes” (Antimicrobial Agents and Chemotherapy, 2019).
# “And” between values parts separate entries of the source, which are not always exact repeats. Equal values may be shown once.
# Columns and labels:
# [1] = tested on: Saccharomyces cerevisiae; test: MIC determination, broth microdilution in semisynthetic medium; type: cell-based
# Protocol: MIC was determined using the broth microdilution method based on the Clinical and Laboratory Standards Institute method with the following minor modifications ([38]). The medium used for MIC determination was semisynthetic medium, which was used for the measurement of intracellular ATP levels as described above. […].
# [2] = tested on: Saccharomyces cerevisiae; test: Intracellular ATP levels in yeast (luminescence assay); type: cell-based
# Protocol: Intracellular ATP levels were measured using a previously described method with the following modifications ([25]). S. cerevisiae was grown overnight in a semisynthetic medium (per liter: 20 g of lactate, 0.5 g of glucose, 3 g of yeast extract, 1 g of KH2PO4, 1 g of NH4Cl, 0.5 g of CaCl2·2H2O, 0.5 g of NaCl, and 0.6 g of MgCl2·6H2O; adjusted to pH 5.5 with NaOH). The cells were harvested during the logarithmic-growth phase by centrifugation (3,000 × g at room temperature for 5 min). They were then washed and resuspended in distilled water. The suspension was diluted in a semisynthetic medium to yield 1 × 10^6 cells/ml. After 5 min of incubation at 30°C, T-2307 and antimycin A were added to the suspension. Further, the cells were incubated for 8 h at 30°C. Subsequently, the cells were collected by centrifugation (4,200 × g at 4°C for 5 min). After washes performed with phosphate-buffered saline (PBS; pH 7.2), the cells were resuspended in PBS and diluted to yield 1 × 10^6 cells/ml. ATP levels were measured using the BacTiter-Glo microbial cell viability assay (Promega, Madison, WI, USA), following the manufacturer’s instructions. Luminescence was measured using a microplate reader POLARstar Optima (BMG Labtech GmbH). To determine the viable cell counts, the cell suspension was diluted with PBS and spread on YPD agar. After a 2-day incubation at 30°C, colonies were counted. The intracellular ATP level is expressed as relative light units (RLU)/CFU.
# [3] = target: respiratory chain complex I (Candida albicans, UniProt Q9B8D6); test: Respiratory chain enzymatic activity, complex I (rotenone-sensitive), C. albicans; type: biochemical; details: read-out: IC50 ± SD, Complex I
# [4] = target: T1, respiratory chain complex II + III (Candida albicans, UniProt A0A1D8PHA3+A0A1D8PJX3+P0C8L0); test: Respiratory chain enzymatic activity, complexes II plus III, C. albicans; type: biochemical; details: C. albicans mitochondria; read-out: IC50 ± SD, Complex II + III
# T1 sequence (P0C8L0 1-387): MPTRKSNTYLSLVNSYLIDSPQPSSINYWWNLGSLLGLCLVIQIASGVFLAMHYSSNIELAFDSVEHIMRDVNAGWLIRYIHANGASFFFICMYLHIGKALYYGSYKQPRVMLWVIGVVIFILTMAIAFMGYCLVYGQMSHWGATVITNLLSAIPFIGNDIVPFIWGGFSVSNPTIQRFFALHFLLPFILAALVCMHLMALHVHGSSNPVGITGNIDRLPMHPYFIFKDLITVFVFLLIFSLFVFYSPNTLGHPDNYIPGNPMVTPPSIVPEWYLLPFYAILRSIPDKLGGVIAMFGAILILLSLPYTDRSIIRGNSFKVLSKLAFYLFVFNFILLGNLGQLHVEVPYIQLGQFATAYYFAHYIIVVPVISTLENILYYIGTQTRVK
# T1 sequence (A0A1D8PHA3 43-288): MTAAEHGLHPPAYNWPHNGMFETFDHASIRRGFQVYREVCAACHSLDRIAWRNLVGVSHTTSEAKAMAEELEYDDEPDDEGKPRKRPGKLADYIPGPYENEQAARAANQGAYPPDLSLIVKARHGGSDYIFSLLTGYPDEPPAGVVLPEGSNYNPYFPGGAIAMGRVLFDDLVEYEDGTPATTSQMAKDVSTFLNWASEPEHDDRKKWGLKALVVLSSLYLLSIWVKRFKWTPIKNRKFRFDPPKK
# T1 sequence (A0A1D8PJX3 30-213): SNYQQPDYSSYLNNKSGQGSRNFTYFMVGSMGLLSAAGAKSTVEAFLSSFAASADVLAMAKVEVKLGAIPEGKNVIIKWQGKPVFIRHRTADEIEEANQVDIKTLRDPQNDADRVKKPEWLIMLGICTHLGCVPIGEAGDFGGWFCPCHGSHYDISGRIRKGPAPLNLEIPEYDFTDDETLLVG
# [5] = tested on: S. cerevisiae cells; test: Accumulation of T-2307 in S. cerevisiae cells; type: cell-based, Saccharomyces cerevisiae
# [6] = target: respiratory chain complex II (Saccharomyces cerevisiae, UniProt P21801+P33421+P37298+Q00711); test: Respiratory chain enzymatic activity, complex II, S. cerevisiae; type: biochemical
# [7] = tested on: S. cerevisiae; details: cited from earlier work
# Sequence of respiratory chain complex II (P21801 21-266): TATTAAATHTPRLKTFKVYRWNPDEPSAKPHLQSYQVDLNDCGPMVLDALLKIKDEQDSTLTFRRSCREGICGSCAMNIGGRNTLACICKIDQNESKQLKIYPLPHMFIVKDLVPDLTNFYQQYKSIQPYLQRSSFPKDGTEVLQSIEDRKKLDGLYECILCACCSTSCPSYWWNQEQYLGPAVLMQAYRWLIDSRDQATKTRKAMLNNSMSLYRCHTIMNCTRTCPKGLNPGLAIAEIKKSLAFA
# Sequence of respiratory chain complex II (P33421 51-198): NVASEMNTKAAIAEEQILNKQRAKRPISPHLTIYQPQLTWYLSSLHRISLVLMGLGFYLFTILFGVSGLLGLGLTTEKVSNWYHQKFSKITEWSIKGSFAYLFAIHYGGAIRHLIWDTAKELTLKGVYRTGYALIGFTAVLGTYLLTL
# Sequence of respiratory chain complex II (P37298 32-181): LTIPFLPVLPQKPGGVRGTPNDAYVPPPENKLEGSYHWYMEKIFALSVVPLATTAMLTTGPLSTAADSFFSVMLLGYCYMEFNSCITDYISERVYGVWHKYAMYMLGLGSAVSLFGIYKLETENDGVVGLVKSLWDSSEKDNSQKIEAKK
# Sequence of respiratory chain complex II (Q00711 29-640): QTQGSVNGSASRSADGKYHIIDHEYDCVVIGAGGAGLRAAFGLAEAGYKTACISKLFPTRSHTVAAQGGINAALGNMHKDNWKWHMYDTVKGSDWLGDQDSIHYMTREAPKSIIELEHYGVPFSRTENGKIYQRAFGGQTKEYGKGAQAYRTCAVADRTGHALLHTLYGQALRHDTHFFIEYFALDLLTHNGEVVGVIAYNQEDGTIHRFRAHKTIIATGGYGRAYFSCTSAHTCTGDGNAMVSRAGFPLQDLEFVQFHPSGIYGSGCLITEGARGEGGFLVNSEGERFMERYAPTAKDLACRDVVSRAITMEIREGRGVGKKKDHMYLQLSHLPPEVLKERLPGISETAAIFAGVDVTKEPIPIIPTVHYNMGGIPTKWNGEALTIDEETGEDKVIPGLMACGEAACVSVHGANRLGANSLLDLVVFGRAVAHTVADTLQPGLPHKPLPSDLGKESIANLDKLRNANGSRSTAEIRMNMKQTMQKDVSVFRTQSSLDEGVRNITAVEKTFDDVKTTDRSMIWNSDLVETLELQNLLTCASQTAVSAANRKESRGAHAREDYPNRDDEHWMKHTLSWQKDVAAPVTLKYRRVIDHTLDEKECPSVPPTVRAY
compound,measurement,setting,value
N=C(N)c1ccc(OCCCC2CCN(CCCOc3ccc(C(=N)N)cc3)CC2)cc1 [T-2307],MIC,[1]; 72 h,0.0068 µg/mL and 0.0156 µM
same,inhibition at 0.125 µM,[1]; read-out: growth inhibition,> 75%
same,concentration that significantly decreased intracellular ATP levels,[2],≥ 0.01 µM
same,reduction in intracellular ATP level,[2],~80%
same,reduction in intracellular ATP levels,[2],> 50%
same,IC50,[3],344 ± 32 µM
same,IC50,[4],220 ± 55 µM
same,concentration in cells relative to extracellular medium,[5],"approximately 6,000 fold"
same,IC50,[6],755 ± 73 µM
same,MIC reported previously,[7],2 nM
